Source: patent US10287305B2, “Substituted piperidine compound and use thereof” (Takeda Pharmaceutical Company Limited, priority 2016, dated 2019)

Target: human orexin type 2 receptor (hOX2R) (Homo sapiens (Human), UniProt O43614)
Experiment: Measurement of orexin type 2 receptor agonist activity (Experimental Example 2-1, FLIPR TETRA, intracellular Ca2+);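 as to Emax: Buffer-only well is 0% and 10 nM human orexin B is 100%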
Format: cell-based
Conditions: CHO dhfr- cells expressing hOX2R; for EC50: agonist activity, 10 nM human orexin B = 100%; for Emax at 30 µM: value at 30 uM concentration, orexin B as full agonist = 100%
Description: To obtain a cell clone stably expressing human orexin type 2 receptor, human orexin type 2 receptor cDNA was inserted into pcDNA3.1(+) plasmid vector (Invitrogen), and a plasmid DNA for expression of human orexin type 2 receptor (pcDNA3.1(+)/hOX2R) was cloned. The plasmid DNA was introduced into CHO-dhfr cell by an electroporation method, and human orexin type 2 receptor expressing clone cells were obtained by limiting dilution method by using G418 drug resistance as a selection marker.
Chinese hamster ovary (CHO) dhfr-cells forcibly expressing human orexin type 2 receptor (hOX2R) were seeded in each well of Black clear bottom plate (384 wells) (Becton, Dickinson and Company) by 10,000 cells, and cultured for 16 hr in an MEM-alpha (Nikken-Bio Co., Ltd.) medium containing 100 U/ml penicillin, 100 μg/ml streptomycin, […] G418 (all above Invitrogen), and 10% fetal calf serum (Thermo), under the conditions of 37° C., 5% CO2. […] A test compound was dissolved in dimethyl sulfoxide to 10 mM, and then diluted with assay buffer 2 (20 mM HEPES, Hanks' balanced salt solution (Invitrogen), 0.1% bovine serum albumin). For the reaction, a test compound solution (10 μL) was added using Fluorescent Imaging Plate Reader TETRA (FLIPR TETRA; manufactured by Molecular Devices), a fluorescence value (excitation wavelength 488 nm, measurement wavelength 570 nm) of each well was measured every one second for 1 min, and the agonist activity was determined using the area of the fluorescence value as an indicator of intracellular Ca^2+ concentration.

Chain of human orexin type 2 receptor (hOX2R) (O43614 whole entry): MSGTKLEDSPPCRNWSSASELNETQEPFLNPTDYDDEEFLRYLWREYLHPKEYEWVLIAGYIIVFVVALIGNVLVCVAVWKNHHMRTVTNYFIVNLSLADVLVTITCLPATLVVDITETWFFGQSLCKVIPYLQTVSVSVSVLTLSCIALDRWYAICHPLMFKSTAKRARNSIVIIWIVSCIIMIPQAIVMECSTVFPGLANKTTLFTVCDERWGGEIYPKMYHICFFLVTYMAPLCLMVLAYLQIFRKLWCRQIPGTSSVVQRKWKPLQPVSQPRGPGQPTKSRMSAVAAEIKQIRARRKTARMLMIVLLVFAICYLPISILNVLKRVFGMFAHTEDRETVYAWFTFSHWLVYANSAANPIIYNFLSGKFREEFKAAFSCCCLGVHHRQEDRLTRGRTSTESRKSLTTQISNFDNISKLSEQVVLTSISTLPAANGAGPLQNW

Row | SMILES | EC50 [nM] | Emax at 30 µM [%]
1 | CC(C)[C@H]1CC[C@@H](OC[C@H]2[C@@H](NS(C)(=O)=O)CCCN2S(C)(=O)=O)CC1 (relative stereo) [Example 36, N-(cis-2-(((cis-4-isopropylcyclohexyl)oxy)methyl)-1-(methylsulfonyl)piperidin-3-yl)methanesulfonamide] |  | 74
2 | CCS(=O)(=O)N[C@H]1CCCN(C(=O)Nc2ccccc2)[C@H]1CO[C@H]1CC[C@@H](C)CC1 (relative stereo) [Example 37, cis-3-((ethylsulfonyl)amino)-2-(((cis-4-methylcyclohexyl)oxy)methyl)-N-phenylpiperidine-1-carboxamide] | 880 | 97
3 | CC(C)[C@H]1CC[C@@H](OC[C@H]2[C@@H](NS(C)(=O)=O)CCCN2C(=O)N2CCCC2)CC1 (relative stereo) [Example 39, N-(cis-2-(((cis-4-isopropylcyclohexyl)oxy)methyl)-1-(pyrrolidin-1-ylcarbonyl)piperidin-3-yl)methanesulfonamide] | 940 | 93
4 | CC(C)[C@H]1CC[C@@H](OC[C@H]2[C@@H](NS(C)(=O)=O)CCCN2C(=O)Oc2ccccc2)CC1 (relative stereo) [Example 43, phenyl cis-2-(((cis-4-isopropylcyclohexyl)oxy)methyl)-3-((methylsulfonyl)amino)piperidine-1-carboxylate] | 1100 | 93
5 | CC(C)[C@H]1CC[C@@H](OC[C@H]2[C@@H](NS(C)(=O)=O)CCCN2C(=O)COc2ccccc2)CC1 (relative stereo) [Example 44, N-(cis-2-(((cis-4-isopropylcyclohexyl)oxy)methyl)-1-(phenoxyacetyl)piperidin-3-yl)methanesulfonamide] | 1300 | 96
6 | CC(C)[C@H]1CC[C@@H](OC[C@H]2[C@@H](NS(C)(=O)=O)CCCN2C(=O)CCc2ccccc2)CC1 (relative stereo) [Example 54, N-(cis-2-(((cis-4-isopropylcyclohexyl)oxy)methyl)-1-(3-phenylpropanoyl)piperidin-3-yl)methanesulfonamide] | 4100 | 88
7 | COC(=O)CCC(=O)N1CCC[C@H](NS(C)(=O)=O)[C@@H]1CO[C@H]1CC[C@@H](C(C)C)CC1 (relative stereo) [Example 55, methyl 4-(cis-2-(((cis-4-isopropylcyclohexyl)oxy)methyl)-3-((methylsulfonyl)amino)piperidin-1-yl)-4-oxobutanoate] | 140 | 97
8 | CC(C)[C@H]1CC[C@@H](OC[C@H]2[C@@H](NS(C)(=O)=O)CCCN2C(=O)C2CCOCC2)CC1 (relative stereo) [Example 60, N-(cis-2-(((cis-4-isopropylcyclohexyl)oxy)methyl)-1-(tetrahydro-2H-pyran-4-ylcarbonyl)piperidin-3-yl)methanesulfonamide] | 140 | 101
9 | CC(C)[C@H]1CC[C@@H](OC[C@H]2[C@@H](NS(C)(=O)=O)CCCN2S(=O)(=O)C2CC2)CC1 (relative stereo) [Example 62, N-(cis-1-(cyclopropylsulfonyl)-2-(((cis-4-isopropylcyclohexyl)oxy)methyl)piperidin-3-yl)methanesulfonamide] | 2300 | 93
10 | Cc1nc(S(=O)(=O)N2CCC[C@H](NS(C)(=O)=O)[C@@H]2CO[C@H]2CC[C@@H](C(C)C)CC2)cn1C (relative stereo) [Example 65, N-(cis-1-((1,2-dimethyl-1H-imidazol-4-yl)sulfonyl)-2-(((cis-4-isopropylcyclohexyl)oxy)methyl)piperidin-3-yl)methanesulfonamide] | 1300 | 95
11 | CC(C)[C@H]1CC[C@@H](OC[C@H]2[C@@H](NS(C)(=O)=O)CCCN2S(=O)(=O)c2cccnc2)CC1 (relative stereo) [Example 66, N-(cis-2-(((cis-4-isopropylcyclohexyl)oxy)methyl)-1-(pyridin-3-ylsulfonyl)piperidin-3-yl)methanesulfonamide] | 3800 | 87
12 | CC(C)[C@H]1CC[C@@H](OC[C@H]2[C@@H](NS(C)(=O)=O)CCCN2S(=O)(=O)c2cnn(C)c2)CC1 (relative stereo) [Example 67, N-(cis-2-(((cis-4-isopropylcyclohexyl)oxy)methyl)-1-((1-methyl-1H-pyrazol-4-yl)sulfonyl)piperidin-3-yl)methanesulfonamide] |  | 93

The next lines start with the values.

Row | EC50 [nM] | Emax at 30 µM [%] | SMILES
13 | 93 | 99 | CCCC(=O)N1CCC[C@H](NS(C)(=O)=O)[C@@H]1CO[C@H]1CC[C@@H](C(C)C)CC1 (relative stereo) [Example 35, N-(cis-1-butyryl-2-(((cis-4-isopropylcyclohexyl)oxy)methyl)piperidin-3-yl)methanesulfonamide]
14 | 720 | 91 | CC(C)[C@H]1CC[C@@H](OC[C@H]2[C@@H](NS(C)(=O)=O)CCCN2C(=O)N(C)C)CC1 (relative stereo) [Example 40, cis-2-(((cis-4-isopropylcyclohexyl)oxy)methyl)-N,N-dimethyl-3-((methylsulfonyl)amino)piperidine-1-carboxamide]
15 |  | 97 | CCOC(=O)N1CCC[C@H](NS(C)(=O)=O)[C@@H]1CO[C@H]1CC[C@@H](C(C)C)CC1 (relative stereo) [Example 42, ethyl cis-2-(((cis-4-isopropylcyclohexyl)oxy)methyl)-3-((methylsulfonyl)amino)piperidine-1-carboxylate]
16 | 330 | 100 | COCC(=O)N1CCC[C@H](NS(C)(=O)=O)[C@@H]1CO[C@H]1CC[C@@H](C(C)C)CC1 (relative stereo) [Example 45, N-(cis-2-(((cis-4-isopropylcyclohexyl)oxy)methyl)-1-(methoxyacetyl)piperidin-3-yl)methanesulfonamide]
17 |  | 101 | CC(=O)OCC(=O)N1CCC[C@H](NS(C)(=O)=O)[C@@H]1CO[C@H]1CC[C@@H](C(C)C)CC1 (relative stereo) [Example 47, 2-(cis-2-(((cis-4-isopropylcyclohexyl)oxy)methyl)-3-((methylsulfonyl)amino)piperidin-1-yl)-2-oxoethyl acetate]
18 | 980 | 96 | CC(C)[C@H]1CC[C@@H](OC[C@H]2[C@@H](NS(C)(=O)=O)CCCN2C(=O)C(C)(C)C)CC1 (relative stereo) [Example 53, N-(cis-1-(2,2-dimethylpropanoyl)-2-(((cis-4-isopropylcyclohexyl)oxy)methyl)piperidin-3-yl)methanesulfonamide]
19 | 89 | 96 | CC(C)[C@H]1CC[C@@H](OC[C@H]2[C@@H](NS(C)(=O)=O)CCCN2C(=O)CCO)CC1 (relative stereo) [Example 72, N-(cis-1-(3-hydroxypropanoyl)-2-(((cis-4-isopropylcyclohexyl)oxy)methyl)piperidin-3-yl)methanesulfonamide]
20 | 560 | 92 | CC(C)[C@H]1CC[C@@H](OC[C@H]2[C@@H](NS(C)(=O)=O)CCCN2C(=O)CC(C)(C)O)CC1 (relative stereo) [Example 73, N-(cis-1-(3-hydroxy-3-methylbutanoyl)-2-(((cis-4-isopropylcyclohexyl)oxy)methyl)piperidin-3-yl)methanesulfonamide]
